This is an account of results in patent US20220081433A1, “CYCLIC SULFAMIDE COMPOUNDS FOR TREATMENT OF HBV” (Assembly Biosciences, Inc., priority 2018, published 2022).

pEC50: −log10 of the molar value. Bounds are passed on as bounds.

This assay relates to HBV. Description: Activity of test compounds on viral production from HepAD38 cells (viral load by qPCR of HBV core sequence). To be noted: Hepatitis B virus, 120 h, 5 days, supernatant HBV DNA by qPCR vs DMSO control, read-out: viral load lowering EC50 (Activity). The format is cell-based. Here is the method:
Assay Measuring Activity of Test Compounds on Viral Production from HepAD38 Cells
HepAD38 cells grown in a T-150 flask (Corning, cat#: 430825) with Growth Medium (DMEM/F12 (1:1) (Hyclone, cat#: SH30023.02), 1× Pen/Strep (Invitrogen, cat#: 15140-122), 10% FBS (Tissue Culture Biologics, cat#: 101), 250 μg/mL G418 (Alfa Aesar, cat#: J62671), 1 μg/mL Tetracycline (Teknova, cat#: T3320)) were detached with 0.25% trypsin-EDTA (Invitrogen, cat#: 25200-056). Tetracycline-free treatment medium (15 mL DMEM/F12 (1:1) 1×Pen/step, with 2% FBS, Tet-system approved (Clontech, cat#: 631106) were then added to mix, transferred into a 50 ml conical tube (Falcon, cat#: 21008-918) and spun at 1300 rpm for 5 min. Pelleted cells were then re-suspended/washed with 50 mL of 1×DPBS (Invitrogen, cat#: 14190-136) 2 times and 50 mL treatment medium twice. HepAD38 cells were then re-suspended with 10 mL of treatment medium, syringed and counted. Wells of 96-well clear bottom TC plate (Corning, cat#: 3904) were seeded at 50,000 cells/well in 180 μL of treatment medium, and 20 μL of either 10% DMSO (Sigma, cat#: D4540) as controls or a 10× solution of test compounds in 10% DMSO in treatment media was added for a final compound concentration starting at 10 μM, and plates were incubated in 5% CO2 incubator at 37° C. for 5 days.
Subsequently viral load production was assayed by quantitative PCR (qPCR) of the HBV core sequence. PCR reaction mixture containing forward primers HBV-f 5′-CTGTGCCTTGGGTGGCTTT-3′ (IDT DNA), Reverse primers HBV-r 5′-[…]-3′ (IDT DNA), Fluorescent TaqMan™ Probes HBV-probe 5′-FAM/AGCTCCAAA/ZEN/[…]/3IABkFQ-3′ (IDT DNA), 10 μL/well of PerfeCTa® qPCR ToughMix® (Quanta Biosciences, Cat#: 95114-05K), and 6 μL/well of DEPC water (Alfa Aesar, cat#: J62087) was prepared. Four μL of supernatant was added to 16 μL of the reaction mixture in a qPCR plate (Applied Biosytems, Cat#: 4309849), sealed with a film (Applied Biosystems, Cat#: 4311971), centrifuged for a few seconds, and subsequently run on an Applied Biosystems VIIA7. The PCR mixture was incubated at 45° C. for 5 min, then 95° C. for 10 min, followed by 40 cycles of 10 seconds at 95° C. and 20 seconds at 60° C. Viral load was quantified against known HBV DNA standards by using ViiA™ 7 Software. Viral load in the supernatant from wells with treated cells were compared against viral load in supernatant from DMSO control wells (≥ 3 per plate). Cell viability assay was performed with CellTiter-Glo Luminescent Cell Viability Assay (Promega, cat#: G7573) with modification. Mixed appropriate amount of CellTiter-Glo (CTG) 1×DPBS in a 1:1 ratio, added 100 uL of the mixture to each well followed completely removal of all supernatant in each well without touching cell surface. Incubated the plate at room temperature for 10 min on an orbital shaker, and then read the plate with a plate reader (TECAN M1000 or Envision). EC50 or CC50 values were calculated through curve-fitting of the four-parameter nonlinear-logistic-regression model (GraphPad Prism or Dotmatics). CC50 values were all >10 μM.
What is called pEC50 is the EC50 on a negative log10 scale, so that one unit is a factor of ten. On to `CN1[C@@H](C(=O)Nc2ccc(F)c(Cl)c2)C[C@@H](c2cccc(-c3cccc(C(F)(F)F)c3)c2)NS1(=O)=O` (single isomer, unassigned) [8-Isomer II], for which the pEC50 is 5.00 to 5.30. The same measure for `CN1C(C(=O)Nc2ccc(F)c(Cl)c2)CC(c2cccc(-c3ccccn3)c2)NS1(=O)=O` (stereo not drawn) [Example 22, N-(3-Chloro-4-fluorophenyl)-2-methyl-5-(3-(pyridin-2-yl)phenyl)-1,2,6-thiadiazinane-3-carboxamide 1,1-dioxide]: greater than 6.00; for `CN1CC=C(c2cccc(C3CC(C(=O)Nc4ccc(F)c(Cl)c4)N(C)S(=O)(=O)N3)c2)CC1` (stereo not drawn) [Example 18, N-(3-Chloro-4-fluorophenyl)-2-methyl-5-(3-(1-methyl-1,2,3,6-tetrahydropyridin-4-yl)phenyl)-1,2,6-thiadiazinane-3-carboxamide 1,1-dioxide]: greater than 6.00; for `CN1C(C(=O)Nc2ccc(F)c(Cl)c2)CC(c2ncc(-c3ccccc3)n2C)NS1(=O)=O` (stereo not drawn) [Example 34, N-(3-Chloro-4-fluorophenyl)-2-methyl-5-(1-methyl-5-phenyl-1H-imidazol-2-yl)-1,2,6-thiadiazinane-3-carboxamide 1,1-dioxide]: 5.00 to 5.30.

For `COc1ccc(-c2cccc(C3CC(C(=O)Nc4ccc(F)c(Cl)c4)N(C)S(=O)(=O)N3)c2)cc1C(F)(F)F` (stereo not drawn) [Example 14, N-(3-Chloro-4-fluorophenyl)-5-(4′-methoxy-3′-(trifluoromethyl)-[1,1′-biphenyl]-3-yl)-2-methyl-1,2,6-thiadiazinane-3-carboxamide 1,1-dioxide], the pEC50 was 5.30 to 6.00. For `CN1C(C(=O)Nc2ccc(F)c(Cl)c2)CC(c2cccc(-c3ccc(C(F)(F)F)cc3)c2)NS1(=O)=O` (stereo not drawn) [Example 21, N-(3-Chloro-4-fluorophenyl)-2-methyl-5-(4′-(trifluoromethyl)-[1,1′-biphenyl]-3-yl)-1,2,6-thiadiazinane-3-carboxamide 1,1-dioxide], the negative logarithm of the EC50 (pEC50) was greater than 6.00. The same measure for `CN1[C@@H](C(=O)Nc2ccc(F)c(Cl)c2)C[C@@H](c2cccc(-c3ccc(Cl)c(Cl)c3)c2)NS1(=O)=O` (single isomer, unassigned) [9-Isomer II]: 5.00 to 5.30; for `Cc1nnc(C2CC(C(=O)Nc3ccc(F)c(Cl)c3)N(C)S(=O)(=O)N2)o1` (stereo not drawn) [Example 29, N-(3-Chloro-4-fluorophenyl)-2-methyl-5-(5-methyl-1,3,4-oxadiazol-2-yl)-1,2,6-thiadiazinane-3-carboxamide 1,1-dioxide]: 5.30 to 6.00; for `Cc1cc(-c2cccc(C3CC(C(=O)Nc4ccc(F)c(Cl)c4)N(C)S(=O)(=O)N3)c2)ccn1` (stereo not drawn) [Example 3, N-(3-Chloro-4-fluorophenyl)-2-methyl-5-(3-(2-methylpyridin-4-yl)phenyl)-1,2,6-thiadiazinane-3-carboxamide 1,1-dioxide]: greater than 6.00. The same measure for `CN1C(C(=O)Nc2ccc(F)c(Cl)c2)CC(c2n[nH]c(=O)n2-c2ccccc2)NS1(=O)=O` (stereo not drawn) [Example 37, N-(3-Chloro-4-fluorophenyl)-2-methyl-5-(5-oxo-4-phenyl-4,5-dihydro-1H-1,2,4-triazol-3-yl)-1,2,6-thiadiazinane-3-carboxamide 1,1-dioxide]: 5.30 to 6.00; for `CN1[C@H](C(=O)Nc2ccc(F)c(Cl)c2)C[C@H](c2cccc(-c3ccc(C#N)cc3)c2)NS1(=O)=O` (single isomer, unassigned) [4-Isomer I]: greater than 6.00. To `CN1C(C(=O)Nc2ccc(F)c(Cl)c2)CC(c2cccc(-c3ccc(F)cc3Cl)c2)NS1(=O)=O` (stereo not drawn) [Example 5, 5-(2′-Chloro-4′-fluoro-[1,1′-biphenyl]-3-yl)-N-(3-Chloro-4-fluorophenyl)-2-methyl-1,2,6-thiadiazinane-3-carboxamide 1,1-dioxide] belongs greater than 6.00. With `CN1C(C(=O)Nc2ccc(F)c(Cl)c2)CC(c2cccc(N3CCCCC3)c2)NS1(=O)=O` (stereo not drawn) [Example 23, N-(3-Chloro-4-fluorophenyl)-2-methyl-5-(3-(piperidin-1-yl)phenyl)-1,2,6-thiadiazinane-3-carboxamide 1,1-dioxide], the pEC50 was greater than 6.00. The same measure for `CN1[C@H](C(=O)Nc2ccc(F)c(Cl)c2)C[C@H](c2cccc(-c3cccc(C(=O)O)c3)c2)NS1(=O)=O` (single isomer, unassigned) [19-Isomer I]: greater than 6.00; for `Cc1nn(C)cc1-c1cccc(C2CC(C(=O)Nc3ccc(F)c(Cl)c3)N(C)S(=O)(=O)N2)c1` (stereo not drawn) [Example 16, N-(3-Chloro-4-fluorophenyl)-5-(3-(1,3-dimethyl-1H-pyrazol-4-yl)phenyl)-2-methyl-1,2,6-thiadiazinane-3-carboxamide 1,1-dioxide]: greater than 6.00; for `COC(=O)c1cccc(-c2cccc(C3CC(C(=O)Nc4ccc(F)c(Cl)c4)N(C)S(=O)(=O)N3)c2)c1` (stereo not drawn) [Example 12, Methyl 3′-(5-((3-Chloro-4-fluorophenyl)carbamoyl)-6-methyl-1,1-dioxido-1,2,6-thiadiazinan-3-yl)-[1,1′-biphenyl]-3-carboxylate]: greater than 6.00. To `CN1[C@@H](C(=O)Nc2ccc(F)c(Cl)c2)C[C@@H](c2cccc(-c3cccc(C(=O)O)c3)c2)NS1(=O)=O` (single isomer, unassigned) [19-Isomer II] belongs 5.00 to 5.30; to `CN1CCN(c2cccc([C@H]3C[C@@H](C(=O)Nc4ccc(F)c(Cl)c4)N(C)S(=O)(=O)N3)c2)CC1` (single isomer, unassigned) [25-Isomer I], greater than 6.00; to `CN1[C@H](C(=O)Nc2ccc(F)c(Cl)c2)C[C@H](c2cccc(-c3ccc(Cl)c(Cl)c3)c2)NS1(=O)=O` (single isomer, unassigned) [9-Isomer I], greater than 6.00. To `Cc1cc(-c2cccc([C@H]3C[C@@H](C(=O)Nc4ccc(F)c(Cl)c4)N(C)S(=O)(=O)N3)c2)ccn1` (single isomer, unassigned) [3-Isomer I] belongs greater than 6.00.

As to `CN1[C@H](C(=O)Nc2ccc(F)c(Cl)c2)C[C@H](c2cccc(-c3ccc(F)cc3Cl)c2)NS1(=O)=O` (single isomer, unassigned) [5-Isomer I], the negative logarithm of the EC50 (pEC50) is greater than 6.00. Turning to `CN1[C@@H](C(=O)Nc2ccc(F)c(Cl)c2)C[C@@H](c2cccc(-c3ccc(C#N)cc3)c2)NS1(=O)=O` (single isomer, unassigned) [4-Isomer II], the pEC50 is 5.30 to 6.00.

In the case of `CN1C(C(=O)Nc2ccc(F)c(Cl)c2)CC(c2cccc(-c3cccc(C(F)(F)F)c3)c2)NS1(=O)=O` (stereo not drawn) [Example 8, N-(3-Chloro-4-fluorophenyl)-2-methyl-5-(3′-(trifluoromethyl)-[1,1′-biphenyl]-3-yl)-1,2,6-thiadiazinane-3-carboxamide 1,1-dioxide], the pEC50 is greater than 6.00. To `CN1[C@@H](C(=O)Nc2ccc(F)c(Cl)c2)C[C@@H](c2cccc(-c3ccc(F)cc3Cl)c2)NS1(=O)=O` (single isomer, unassigned) [5-Isomer II] belongs 5.30 to 6.00; to `CN1[C@H](C(=O)Nc2ccc(F)c(Cl)c2)C[C@H](c2cccc(N3CCOCC3)c2)NS1(=O)=O` (single isomer, unassigned) [24-Isomer I], greater than 6.00. On to `CN1C(C(=O)Nc2ccc(F)c(Cl)c2)CC(c2cccc(-c3ccccc3)c2)NS1(=O)=O` (stereo not drawn) [Example 2, 5-([1,1-Biphenyl]-3-yl)-N-(3-chloro-4-fluorophenyl)-2-methyl-1,2,6-thiadiazinane-3-carboxamide 1,1-dioxide], for which the pEC50 is greater than 6.00. For `CN1C(C(=O)Nc2ccc(F)c(Cl)c2)CC(c2cccc(-n3cccn3)c2)NS1(=O)=O` (stereo not drawn) [Example 26, 5-(3-(1H-Pyrazol-1-yl)phenyl)-N-(3-chloro-4-fluorophenyl)-2-methyl-1,2,6-thiadiazinane-3-carboxamide 1,1-dioxide], the negative-log EC50 (pEC50) was greater than 6.00.
